Test results: the NIST ThermoML archive (doi:10.1021/je020138s)
± gives the expanded uncertainty stated by the source.

Experiments:
[1] = xn = mol fraction of the nth substance listed; details: 308.15 K, 101 kPa, Liquid
[2] = excess molar enthalpy (molar enthalpy of mixing); xn = mol fraction of the nth substance listed; details: 101 kPa, Liquid, Calvet calorimetry

CCCCOC(=O)CCC [butyl butanoate] + CCCCCCCCCCCC
[1]
Details | excess molar volume [m3/mol]
x1 = 0.086 | 2.25e-07 ± 1.6e-08
x1 = 0.1642 | 4.085e-07 ± 1.7e-08
x1 = 0.2326 | 4.99e-07 ± 1.8e-08
x1 = 0.3151 | 5.957e-07 ± 1.8e-08
x1 = 0.4238 | 6.386e-07 ± 1.9e-08
x1 = 0.4435 | 6.409e-07 ± 1.9e-08
x1 = 0.5057 | 6.525e-07 ± 1.9e-08
x1 = 0.5458 | 6.501e-07 ± 1.9e-08
x1 = 0.6564 | 5.883e-07 ± 1.8e-08
x1 = 0.6617 | 5.83e-07 ± 1.8e-08
x1 = 0.6962 | 5.604e-07 ± 1.8e-08
x1 = 0.7365 | 5.311e-07 ± 1.8e-08
x1 = 0.7625 | 4.759e-07 ± 1.8e-08
x1 = 0.7821 | 4.581e-07 ± 1.8e-08
x1 = 0.8186 | 4.073e-07 ± 1.7e-08
x1 = 0.8623 | 3.308e-07 ± 1.7e-08
x1 = 0.9593 | 1.15e-07 ± 1.6e-08

[2], 308 K
Details | excess molar enthalpy [kJ/mol]
x1 = 0.0894 | 0.295 ± 0.004
x1 = 0.1261 | 0.392 ± 0.005
x1 = 0.1734 | 0.516 ± 0.007
x1 = 0.205 | 0.573 ± 0.007
x1 = 0.2668 | 0.689 ± 0.009
x1 = 0.3014 | 0.736 ± 0.009
x1 = 0.326 | 0.764 ± 0.01
x1 = 0.3509 | 0.787 ± 0.01
x1 = 0.4179 | 0.851 ± 0.011
x1 = 0.4544 | 0.869 ± 0.011
x1 = 0.517 | 0.866 ± 0.011
x1 = 0.5526 | 0.864 ± 0.011
x1 = 0.6779 | 0.777 ± 0.01
x1 = 0.7202 | 0.727 ± 0.009
x1 = 0.8233 | 0.537 ± 0.007
x1 = 0.8287 | 0.525 ± 0.007
x1 = 0.9006 | 0.338 ± 0.005
x1 = 0.9307 | 0.24 ± 0.003

CCCCCCCCO [octan-1-ol] + CCCCCCCCCCCC
[2], 308.15 K
Details | excess molar enthalpy [kJ/mol]
x1 = 0.1345 | 0.721 ± 0.009
x1 = 0.1898 | 0.782 ± 0.01
x1 = 0.2658 | 0.828 ± 0.011
x1 = 0.3122 | 0.836 ± 0.011
x1 = 0.4077 | 0.831 ± 0.011
x1 = 0.4433 | 0.821 ± 0.01
x1 = 0.4591 | 0.812 ± 0.01
x1 = 0.5302 | 0.777 ± 0.01
x1 = 0.5667 | 0.749 ± 0.01
x1 = 0.6587 | 0.663 ± 0.009
x1 = 0.6595 | 0.668 ± 0.009
x1 = 0.7509 | 0.529 ± 0.007
x1 = 0.7661 | 0.504 ± 0.007
x1 = 0.8263 | 0.39 ± 0.005
x1 = 0.8566 | 0.327 ± 0.004
x1 = 0.8983 | 0.24 ± 0.003
x1 = 0.9353 | 0.153 ± 0.002
x1 = 0.97 | 0.071 ± 0.002
